Experimental data published in patent publication US10688103B2, “Methods for treating hypersomnia” (BALANCE THERAPEUTICS, INC., priority 2014, dated 2020).

Tests used:
[1] = tested on: patient diagnosed with primary hypersomnia; assay: Epworth Sleepiness Scale (ESS) in hypersomnia patients; format: in vivo, human
Excerpt: In some embodiments, total scores in the ESS range from 0 to 24. A skilled artisan will recognize that in the ESS scores at the lower end (towards 0) of the scale indicate an improvement in a subject's hypersomnia. In some embodiments, scores of 10 and above indicate significant hypersomnia symptoms in a subject. In some embodiments, changes of 2-3 points in the ESS indicate clinically meaningful improvements in the subject's hypersomnia.
(§1) The patient was selected for PTZ treatments based on a clinical diagnosis of primary hypersomnia and the presence of an elevated level of an endogenous positive GABAA receptor allosteric modulator in the cerebrospinal fluid (CSF) of the subject relative to the CSF of a subject not having hypersomnia. The patient's sleepiness was scored according to the Epworth Sleepiness Scale (ESS), the Functional Outcomes of Sleep Questionnaire (FOSQ) Total Score, and the Multidimensional Fatigue Inventory (MFI). Additional clinical parameters recorded during the course of PTZ treatment included the Clinical Global Impression of Severity (CGI-S), the Clinical Global Impression of Change (CGI-C), the Beck Depression Inventory (BDI-II) Total Score and the patient's reported feelings of fogginess.
(§2) PTZ was orally administered to the patient twice daily at doses of 100 mg in liquid form in a TANG™ brand juice.
(§3) The patients were selected for PTZ treatments and evaluated as described in Example 2. PTZ was orally administered in liquid form in a TANG™ brand juice.
(§4) The patients were first evaluated while receiving flumazenil (Patient 1) or clarithromycin (Patient 2). […] A second evaluation of the two patients was performed at the end of the wash-out period. PTZ was then administered to Patient 1 for two weeks. During the first week, PTZ was administered to Patient 1 twice daily at doses of 100 mg, and during the second week PTZ was administered to Patient 1 at doses of 200 mg. PTZ was administered to Patient 2 for one week twice daily at doses of 100 mg. The patients were evaluated at the end of the first week (Patients 1 and 2) and at the end of the second week (Patient 1).

[2] = tested on: patient diagnosed with primary hypersomnia; assay: Functional Outcomes of Sleep Questionnaire (FOSQ) in hypersomnia patients; format: in vivo, human; parameters: key to FOSQ General Productivity Score / FOSQ Social Outcome Score / FOSQ Activity Level Score / FOSQ Vigilance Score / FOSQ Intimate Relationships and Sexual Activity Score: subscale score ~1-4; higher = improvement; key to Functional Outcomes of Sleep Questionnaire (FOSQ) Total Score: total score ~5-20; higher = improvement
Procedure: In some embodiments, the subject having hypersomnia is assessed using the Functional Outcomes of Sleep Questionnaire (FOSQ). The FOSQ can, e.g., be administered to the subject by asking the subject to rate the impact of a sleep disorder on a scale on activities within certain categories. In some embodiments, an FOSQ total score is determined. In some embodiments, the FOSQ total score is determined from one or more subscale scores (e.g., 1, 2, 3, 4, 5, 6, 7, 8, or more subscale scores). In some embodiments, the FOSQ subscale scores can include, e.g., a General Productivity Score, a Social Outcome Score, an Activity Level Score, a Vigilance Score, or an Intimate Relationship and Sexual Activity Score. A skilled artisan will recognize that higher FOSQ total or subscale scores indicate an improvement in the subject's hypersomnia. In some embodiments, FOSQ total scores can range from about 5 to 20. In some embodiments, FOSQ subscale scores can range from about 1 to 4.
as §1, §2, §3, §4

[3] = tested on: patient diagnosed with primary hypersomnia; assay: Beck Depression Inventory (BDI-II) in hypersomnia patients; format: in vivo, human
Procedure: In some embodiments, the subject having hypersomnia is assessed using the Beck Depression Inventory (current version, published in 1996, is the BDI-II). In some embodiments, a BDI-II total score is determined. In some embodiments, a BDI-II total score of 0-13 indicates minimal depression; a score of 14-19 indicates mild depression; a score of 20-28 indicates moderate depression; and a score of 29-63 indicates severe depression.
as §1, §2, §3, §4

[4] = tested on: patient diagnosed with primary hypersomnia; assay: Clinical Global Impression of Severity (CGI-S) in hypersomnia patients; format: in vivo, human
Procedure: In some embodiments, the subject having hypersomnia is assessed using the Clinical Global Impression of Severity (CGI-S).
as §1, §2, §3, §4

[5] = tested on: patient diagnosed with primary hypersomnia; assay: Multidimensional Fatigue Inventory (MFI) in hypersomnia patients; format: in vivo, human; parameters: key: MFI subscale score; lower scores indicate improvement
Procedure: In some embodiments, the subject having hypersomnia is assessed using the Multidimensional Fatigue Inventory (MFI). The MFI is typically a 20-item scale designed to evaluate five dimensions of fatigue. In some embodiments, a total MFI score is calculated. In some embodiments, the MFI can include one or more scales (e.g., 1, 2, 3, 4, 5, 6, 7, 8, or more scales). In some embodiments, the MFI scales can include, e.g., a General Fatigue Scale, a Physical Activity Scale, a Reduced Activity Scale, a Reduced Motivation Scale, or a Mental Fatigue Scale. Generally, in MFI lower scores indicate improvements in the subject's […].
as §1, §2, §3, §4

[6] = tested on: human patients diagnosed with primary hypersomnia; assay: Overall comparison of treatments of hypersomnia in human patients; format: in vivo; details: Patients 1 and 2 diagnosed with primary hypersomnia
Procedure: This example describes the treatment of hypersomnia by administering PTZ to two human patients having hypersomnia who were treated with flumazenil (Patient 1) or clarithromycin (Patient 2) prior to the administration of PTZ.
as §3, §4

[7] = tested on: patient diagnosed with primary hypersomnia; assay: Self-reported fogginess score in hypersomnia patients; format: in vivo, human; details: oral, average of daily scores over one week
Procedure: In some embodiments, the subject having hypersomnia is assessed using a self-reported fogginess score. It is believed that the fogginess score can be used to evaluate a subject's clarity of thinking, which can reflect the subject's cognitive state. In some embodiments, the subject is asked how foggy the subject feels, e.g., since waking up in the morning or since midday. Scoring in a self-reported fogginess score can, e.g., be scored on a scale from 0 to 3.
as §1, §2, §3, §4

[8] = tested on: patient diagnosed with primary hypersomnia; assay: Clinical Global Impression of Change (CGI-C) in hypersomnia patients; format: in vivo, human; details: oral
Procedure: In some embodiments, the subject having hypersomnia is assessed using the Clinical Global Impression of Change (CGI-C).
as §1, §2, §3, §4

[9] = Patient 2, before PTZ treatment, on clarithromycin
[10] = Patient 1, before PTZ treatment, on flumazenil
[11] = Patient 1 (patient of Example 2), after 1 week on PTZ 100 mg twice daily
[12] = Patient 1, after 2 weeks on PTZ (200 mg twice daily in 2nd week)
[13] = Patient 2, after 1 week on PTZ 100 mg twice daily
[14] = Patient 1 (patient of Example 2), after 1 week on PTZ 100 mg twice daily, oral
[15] = Patient 1, after 2 weeks on PTZ (200 mg twice daily in 2nd week), oral
[16] = Patient 2, after 1 week on PTZ 100 mg twice daily, oral
[17] = Patient of Example 2, after one week of PTZ treatment vs before treatment

## CC[C@H]1OC(=O)[C@H](C)[C@@H](O[C@H]2C[C@@](C)(OC)[C@@H](O)[C@H](C)O2)[C@H](C)[C@@H](O[C@@H]2O[C@H](C)C[C@H](N(C)C)[C@H]2O)[C@](C)(OC)C[C@@H](C)C(=O)[C@H](C)[C@@H](O)[C@]1(C)O [Clarithromycin, clarithromycin]
[1]; [9]
  Epworth Sleepiness Scale (ESS) Total Score: 8
[2]; [9]
  FOSQ Activity Level Score: 2.3
  FOSQ General Productivity Score: 3.4
  FOSQ Intimate Relationships and Sexual Activity Score: 4.0
  FOSQ Social Outcome Score: 3.0
  FOSQ Vigilance Score: 2.1
  Functional Outcomes of Sleep Questionnaire (FOSQ) Total Score: 15
[3]; [9]
  Beck Depression Inventory (BDI-II) Total Score: 0
[4]; [9]
  Clinical Global Impression of Severity (CGI-S): 4
[5]; [9]
  Multidimensional Fatigue Inventory (MFI) General Fatigue Scale: 17
  Multidimensional Fatigue Inventory (MFI) Mental Fatigue Scale: 9
  Multidimensional Fatigue Inventory (MFI) Physical Fatigue Scale: 13
  Multidimensional Fatigue Inventory (MFI) Reduced Activity Scale: 9
  Multidimensional Fatigue Inventory (MFI) Reduced Motivation Scale: 13

## CCOC(=O)c1ncn2c1CN(C)C(=O)c1cc(F)ccc1-2 [Flumazenil, flumazenil]
[1]; [10]
  Epworth Sleepiness Scale (ESS) Total Score: 12
[2]; [10]
  FOSQ Activity Level Score: 1.4
  FOSQ General Productivity Score: 2.4
  FOSQ Intimate Relationships and Sexual Activity Score: 1.0
  FOSQ Social Outcome Score: 3.0
  FOSQ Vigilance Score: 2.3
  Functional Outcomes of Sleep Questionnaire (FOSQ) Total Score: 10
[3]; [10]
  Beck Depression Inventory (BDI-II) Total Score: 16
[4]; [10]
  Clinical Global Impression of Severity (CGI-S): 6
[5]; [10]
  Multidimensional Fatigue Inventory (MFI) General Fatigue Scale: 19
  Multidimensional Fatigue Inventory (MFI) Mental Fatigue Scale: 16
  Multidimensional Fatigue Inventory (MFI) Physical Fatigue Scale: 19
  Multidimensional Fatigue Inventory (MFI) Reduced Activity Scale: 19
  Multidimensional Fatigue Inventory (MFI) Reduced Motivation Scale: 12

## C1CCc2nnnn2CC1 [PTZ, pentylenetetrazol]
[6]
  Efficacy in the treatment of hypersomnia relative to flumazenil and clarithromycin: superior efficacy
[7]; [11]
  How foggy have you felt since midday?: 0.1
  How foggy have you felt since waking up this morning?: 1.1
[7]; [12]
  How foggy have you felt since midday?: 0.7
  How foggy have you felt since waking up this morning?: 1.0
[7]; [13]
  How foggy have you felt since midday?: 1.2
  How foggy have you felt since waking up this morning?: 2.1
[1]; [14]
  Epworth Sleepiness Scale (ESS) Total Score: 13
[1]; [15]
  Epworth Sleepiness Scale (ESS) Total Score: 9
[1]; [16]
  Epworth Sleepiness Scale (ESS) Total Score: 8
[1]; [17]
  ESS Total Score decrease: 6 points
[2]; [14]
  FOSQ Activity Level Score: 2.9
  FOSQ General Productivity Score: 3.3
  FOSQ Intimate Relationships and Sexual Activity Score: 2.0
  FOSQ Social Outcome Score: 3.0
  FOSQ Vigilance Score: 3.1
  Functional Outcomes of Sleep Questionnaire (FOSQ) Total Score: 14.5
[2]; [15]
  FOSQ Activity Level Score: 2.9
  FOSQ General Productivity Score: 3.7
  FOSQ Intimate Relationships and Sexual Activity Score: 3.0
  FOSQ Social Outcome Score: 3.5
  FOSQ Vigilance Score: 3.7
  Functional Outcomes of Sleep Questionnaire (FOSQ) Total Score: 17.0
[2]; [16]
  FOSQ Activity Level Score: 3.4
  FOSQ General Productivity Score: 3.4
  FOSQ Intimate Relationships and Sexual Activity Score: 4.0
  FOSQ Social Outcome Score: 3.0
  FOSQ Vigilance Score: 2.9
  Functional Outcomes of Sleep Questionnaire (FOSQ) Total Score: 16.5
[2]; [17]
  FOSQ Total Score increase: 8 points
[3]; [14]
  Beck Depression Inventory (BDI-II) Total Score: 8
[3]; [15]
  Beck Depression Inventory (BDI-II) Total Score: 5
[3]; [16]
  Beck Depression Inventory (BDI-II) Total Score: 0
[4]; [14]
  Clinical Global Impression of Severity (CGI-S): 5
[4]; [15]
  Clinical Global Impression of Severity (CGI-S): 4
[4]; [16]
  Clinical Global Impression of Severity (CGI-S): 3
[8]; [11]
  Clinical Global Impression of Change (CGI-C): 3
[8]; [12]
  Clinical Global Impression of Change (CGI-C): 2
[8]; [13]
  Clinical Global Impression of Change (CGI-C): 2
[5]; [14]
  Multidimensional Fatigue Inventory (MFI) General Fatigue Scale: 18
  Multidimensional Fatigue Inventory (MFI) Mental Fatigue Scale: 7
  Multidimensional Fatigue Inventory (MFI) Physical Fatigue Scale: 14
  Multidimensional Fatigue Inventory (MFI) Reduced Activity Scale: 16
  Multidimensional Fatigue Inventory (MFI) Reduced Motivation Scale: 9
[5]; [15]
  Multidimensional Fatigue Inventory (MFI) General Fatigue Scale: 15
  Multidimensional Fatigue Inventory (MFI) Mental Fatigue Scale: 8
  Multidimensional Fatigue Inventory (MFI) Physical Fatigue Scale: 14
  Multidimensional Fatigue Inventory (MFI) Reduced Activity Scale: 16
  Multidimensional Fatigue Inventory (MFI) Reduced Motivation Scale: 11
[5]; [16]
  Multidimensional Fatigue Inventory (MFI) General Fatigue Scale: 13
  Multidimensional Fatigue Inventory (MFI) Mental Fatigue Scale: 6
  Multidimensional Fatigue Inventory (MFI) Physical Fatigue Scale: 7
  Multidimensional Fatigue Inventory (MFI) Reduced Activity Scale: 6
  Multidimensional Fatigue Inventory (MFI) Reduced Motivation Scale: 7
